# From patent publication US11150234B2, “Method for evaluating taxic behavior in response to odor substance based on olfactory sense in nematodes, and dish and behavior evaluation system used in evaluation method” (priority 2016, dated 2021)
# Assays:
# wild type C. elegans = test: Taxic behavior evaluation through olfactory sense using 5 cm×2 cm rectangular dish, without nematicide; type: in vivo, Caenorhabditis elegans; conditions: for taxis index: 10 minutes after dissemination, 1 μL isoamyl alcohol diluted 1000-fold with water or 1 μL nonanone stock solution, average of 5 experiments
# Description: First, a rectangular dish having a bottom surface of 5 cm×2 cm was fabricated as an example (see FIGS. 1A and B). Nematodes were disseminated into a region defined by two lines at the center of the rectangular dish in the longitudinal direction, and an attractant or a repellent was applied to the region at the left end. […] In this example, isoamyl alcohol was used as an attractant, and nonanone was used as a repellent. Specifically, isoamyl alcohol was diluted 1000-fold with water, and 1 μL thereof was applied to the region at the left end. Further, 1 μL of the stock solution of nonanone was applied to the region at the left end. As the nematodes, wild type C. elegans (10 to 50 nematodes/experiment) were used. […] Specifically, the difference in the number of nematodes between those moved to the region (region indicated by O-mark in FIG. 4, corresponding to region 1 of the first embodiment) located between the region at the left end to which an attractant or a repellent was applied and the region at the center in the longitudinal direction in which the nematodes were disseminated and those moved to the region on the opposite side (region indicated by X-mark in FIG. 4, corresponding to region 2 of the first embodiment) was determined, and the result was divided by the number of all nematodes to determine the taxis index. Taxis Index (Taxis index)={(the number of nematodes in region indicated by symbol “O”)−(the number of nematodes in region indicated by symbol “X”)}/the number of all nematodes The experiment was repeated 5 times, to determine the average of taxis indices and SEM. The taxic behavior was evaluated in the same manner as in Example 1 except that urine (1/20 dilution) of a cancer patient or urine (1/20 dilution) of a healthy individual was used as an attractant or a repellent. […] Urine obtained from a plurality of different cancer patients was used.
# N2 Bristol strains = test: Taxic behavior evaluation system of third embodiment (5 cm×2 cm×1 mm recess in solid medium covered with plate); type: in vivo, Caenorhabditis elegans; conditions: 23° C., IAA diluted 10^−5-fold
# Description: The taxic behavior based on olfactory sense was evaluated using N2 Bristol strains that are nematode strains. […] After a reagent was mixed using the culture medium composition of the assay plate, followed by autoclaving, an appropriate amount of the reagent was poured into a 9 cm dish, and the solid medium was solidified by cooling while pressing a plastic plate of 5 cm×2 cm×1 mm against the surface. After the solid medium was solidified, the plastic plate was removed, to form a recess with a length of 5 cm, a width of 2 cm, and a depth of 1 mm on the surface of the solid medium. Then, isoamyl alcohol (IAA) diluted 10^-5-fold or nonanone (Nona) diluted 10^-3-fold was arranged at the position shown by the symbol “+” on the right side of FIG. 13, and nematodes cultured at 20° C. for 4 days were arranged at the center (which corresponded to region B in FIG. 13). Thereafter, the taxic behavior of nematodes at 23° C. was observed. The number of nematodes in the regions corresponding to regions A, B, and C in FIG. 13 were counted after a lapse of 0 minutes, 5 minutes, 10 minutes, and 20 minutes. The number of nematodes remaining was calculated as a ratio of the number of nematodes in response to the number of nematodes at 0 minutes at each time. Further, the taxis index was calculated based on the formula [[…])]. Here, N (A) is the number of nematodes that moved to region A, and N (B) is the number of nematodes that moved to region B.
# [1] = at 5 minutes, nonanone diluted 10^−3-fold
Structure (SMILES),taxis index (wild type C. elegans),"nematodes showing attraction behavior in response to the attractant (wild type C. elegans; 10 minutes, from taxis index) [%]",taxic behavior observed (N2 Bristol strains; [1]),taxic behavior observed (N2 Bristol strains; at 20 minutes),"nematodes showing avoidance behavior in response to the repellent (wild type C. elegans; 10 minutes, from taxis index) [%]"
CC(C)CCO [isoamyl alcohol],over 0.8,≥ 90,migration behavior,migration behavior,–
CCCCCCCC(C)=O [nonanone],below −0.8,–,avoidance behavior,–,≥ 90
